Values after ≈ are worked out from the molar mass of the structure shown.
How the values were obtained:
Escherichia coli = assay: Anti-bacterial activity against Escherichia coli ATCC 11303 measured after 24 hrs by microtiter broth dilution method; format: functional; conditions: ATCC 11303, 24 h
Candida albicans = assay: microbe, parasite or virus in culture; format: functional; conditions: ATCC 10231, 24 h
Description: Anti-fungal activity against Candida albicans ATCC 10231 measured after 24 hrs by microtiter broth dilution method

Staphylococcus aureus [1] = assay: Anti-bacterial activity against Staphylococcus aureus ATCC 10832 measured after 24 hrs by microtiter broth dilution method; format: functional; conditions: ATCC 10832, 24 h
Bacillus subtilis [2] = assay: Anti-bacterial activity against Bacillus subtilis ATCC 33712 measured after 24 hrs by microtiter broth dilution method; format: functional; conditions: ATCC 33712, 24 h
Staphylococcus aureus [3] = assay: Anti-bacterial activity against methicillin-resistant Staphylococcus aureus ATCC 700699 measured after 24 hrs by microtiter broth dilution method; format: functional; conditions: Mu50, 24 h
Bacillus subtilis [4] = assay: Potency index, ratio of Cefotaxime IC50 to compound IC50 for anti-bacterial activity against Bacillus subtilis ATCC 33712; format: functional
Bacillus subtilis [5] = assay: Potency index, ratio of ceftazidime IC50 to compound IC50 for anti-bacterial activity against Bacillus subtilis ATCC 33712; format: functional
Bacillus subtilis [6] = assay: Potency index, ratio of Cefradine MIC to compound MIC for anti-bacterial activity against Bacillus subtilis ATCC 33712
Bacillus subtilis [7] = assay: Potency index, ratio of sodium penicillin IC50 to compound IC50 for anti-bacterial activity against Bacillus subtilis ATCC 33712; format: functional

| Structure (SMILES) | MIC (Escherichia coli) | MIC (Candida albicans) | MIC (Staphylococcus aureus [1]) | MIC (Bacillus subtilis [2]) | MIC (Staphylococcus aureus [3]) | Ratio IC50 (Bacillus subtilis [4]) | Ratio IC50 (Bacillus subtilis [5]) | Ratio MIC (Bacillus subtilis [6]) | Ratio IC50 (Bacillus subtilis [7]) |
| --- | --- | --- | --- | --- | --- | --- | --- | --- | --- |
| Cc1oc(-c2ccccc2)nc1CCCc1nc2cc(C[C@H](Oc3ccc(C(C)(C)C)cc3)C(=O)O)ccc2o1 | 3.12 µg/mL (≈ 5.79 µM) | > 200 µg/mL | 1.56 µg/mL (≈ 2.9 µM) | 3.12 µg/mL (≈ 5.79 µM) | 1.56 µg/mL (≈ 2.9 µM) | – | – | – | – |
| CC(C)(C)c1ccc(O[C@@H](Cc2ccc3oc(CCc4cn5cc(C(F)(F)F)ccc5n4)nc3c2)C(=O)O)cc1 | > 200 µg/mL | > 200 µg/mL | 50 µg/mL (≈ 90.7 µM) | 50 µg/mL (≈ 90.7 µM) | 25 µg/mL (≈ 45.3 µM) | – | – | – | – |
| CCCCCCCc1nc2cc(C[C@H](Oc3ccc(C(C)(C)C)cc3)C(=O)O)ccc2o1 | 1.56 µg/mL (≈ 3.57 µM) | > 200 µg/mL | 0.78 µg/mL (≈ 1.78 µM) | 0.78 µg/mL (≈ 1.78 µM) | 1.56 µg/mL (≈ 3.57 µM) | – | – | – | – |
| Cc1oc(-c2ccccc2)nc1CCc1nc2cc(C[C@H](Oc3ccc(C(C)(C)C)cc3)C(=O)O)ccc2o1 | 1.56 µg/mL (≈ 2.97 µM) | > 200 µg/mL | 1.56 µg/mL (≈ 2.97 µM) | 0.78 µg/mL (≈ 1.49 µM) | 0.78 µg/mL (≈ 1.49 µM) | – | – | – | – |
| CC(C)c1ccc(CCc2nc3cc(C[C@H](Oc4ccc(C(C)(C)C)cc4)C(=O)O)ccc3o2)cc1 | 0.78 µg/mL (≈ 1.61 µM) | > 200 µg/mL | 0.39 µg/mL (≈ 0.803 µM) | 0.098 µg/mL (≈ 0.202 µM) | 0.195 µg/mL (≈ 0.402 µM) | 8 - 510 | 8 - 510 | 8 - 510 | 2 |
| CC(C)(C)c1ccc(O[C@@H](Cc2ccc3oc(CCc4ncco4)nc3c2)C(=O)O)cc1 | > 200 µg/mL | > 200 µg/mL | > 200 µg/mL | 200 µg/mL (≈ 460 µM) | 200 µg/mL (≈ 460 µM) | – | – | – | – |
| CC(C)(C)c1ccc(O[C@@H](Cc2ccc3oc(CC4CCOCC4)nc3c2)C(=O)O)cc1 | > 200 µg/mL | > 200 µg/mL | – | 200 µg/mL (≈ 457 µM) | – | – | – | – | – |
| COc1cc(CCc2nc3cc(C[C@H](Oc4ccc(C(C)(C)C)cc4)C(=O)O)ccc3o2)cc(OC)c1OC | 200 µg/mL (≈ 375 µM) | > 200 µg/mL | 100 µg/mL (≈ 187 µM) | 100 µg/mL (≈ 187 µM) | 100 µg/mL (≈ 187 µM) | – | – | – | – |
| CC(C)Cc1nc2cc(C[C@H](Oc3ccc(C(C)(C)C)cc3)C(=O)O)ccc2o1 | 3.12 µg/mL (≈ 7.89 µM) | > 200 µg/mL | – | 1.56 µg/mL (≈ 3.94 µM) | – | – | – | – | – |
| CC(C)(C)c1ccc(O[C@@H](Cc2ccc3oc(CCc4ccccc4)nc3c2)C(=O)O)cc1 | 3.12 µg/mL (≈ 7.03 µM) | > 200 µg/mL | 1.56 µg/mL (≈ 3.52 µM) | 0.39 µg/mL (≈ 0.879 µM) | 1.56 µg/mL (≈ 3.52 µM) | – | – | – | – |
| CC(C)(C)c1ccc(O[C@@H](Cc2ccc3oc(CCc4cc5ccccc5o4)nc3c2)C(=O)O)cc1 | 0.78 µg/mL (≈ 1.61 µM) | > 200 µg/mL | 0.78 µg/mL (≈ 1.61 µM) | 0.39 µg/mL (≈ 0.807 µM) | 0.78 µg/mL (≈ 1.61 µM) | – | – | – | – |
| CC(C)(C)c1ccc(O[C@@H](Cc2ccc3oc(CCc4ccc(F)cc4)nc3c2)C(=O)O)cc1 | 1.56 µg/mL (≈ 3.38 µM) | > 200 µg/mL | 1.56 µg/mL (≈ 3.38 µM) | 0.39 µg/mL (≈ 0.845 µM) | 1.56 µg/mL (≈ 3.38 µM) | – | – | – | – |
| CO/N=C(\C(=O)N[C@@H]1C(=O)N2C(C(=O)O)=C(COC(C)=O)CS[C@H]12)c1csc(N)n1 [CEFOTAXIME] | 200 µg/mL (≈ 439 µM) | – | 3.12 µg/mL (≈ 6.85 µM) | 0.78 µg/mL (≈ 1.71 µM) | 3.12 µg/mL (≈ 6.85 µM) | – | – | – | – |
| CC(C)(O/N=C(\C(=O)N[C@@H]1C(=O)N2C(C(=O)[O-])=C(C[n+]3ccccc3)CS[C@H]12)c1csc(N)n1)C(=O)O [CEFTAZIDIME] | 200 µg/mL (≈ 366 µM) | – | 0.78 µg/mL (≈ 1.43 µM) | 6.25 µg/mL (≈ 11.4 µM) | 12.5 µg/mL (≈ 22.9 µM) | – | – | – | – |
| CC1=C(C(=O)O)N2C(=O)[C@@H](NC(=O)[C@H](N)C3=CCC=CC3)[C@H]2SC1 [CEPHRADINE] | 25 µg/mL (≈ 71.5 µM) | – | 25 µg/mL (≈ 71.5 µM) | 50 µg/mL (≈ 143 µM) | 50 µg/mL (≈ 143 µM) | – | – | – | – |
| CC(=O)N1CCN(c2ccc(OCC3COC(Cn4ccnc4)(c4ccc(Cl)cc4Cl)O3)cc2)CC1 (stereo not drawn) [KETOCONAZOLE] | – | < 0.39 µg/mL | – | – | – | – | – | – | – |
| Clc1ccc(COC(Cn2ccnc2)c2ccc(Cl)cc2Cl)c(Cl)c1.O=[N+]([O-])O (stereo not drawn) [MICONAZOLE NITRATE] | – | 1.56 µg/mL | – | – | – | – | – | – | – |
| CC1(C)S[C@@H]2[C@H](NC(=O)Cc3ccccc3)C(=O)N2[C@H]1C(=O)[O-].[Na+] [PENICILLIN G SODIUM] | 0.78 µg/mL | – | 3.12 µg/mL | 0.195 µg/mL | 3.12 µg/mL | – | – | – | – |

Reference: ChEMBL document CHEMBL4002545, “Design, synthesis and antimicrobial evaluation of novel benzoxazole derivatives” (2017)
